Results from PMC2747801 (European journal of pharmaceutical sciences : official …, 2009).
Read-outs that look alike come from different tables or passages of the source.

Key:
[1] = cited from earlier work
[2] = cited from earlier work; remark: listed apart in the source
[3] = male, mouse, pH 7.4; for logPS(obs): in vivo
[4] = cited from earlier work; remark: listed apart in the source
[5] = rat, 5-50uM self-inhibition, test set ref Summerfield et al. 2007
[6] = rat, not saturable ref Parepally et al. 2006
[7] = PAMPA intrinsic permeability, ref Ruell et al. 2004
[8] = rat, test set ref Gratton et al. 1997
[9] = rat, PSC833,GF120918 ref Youdim et al. 2004
[10] = rat, Kd (nonsaturable component) ref Smith et al. 1986
[11] = rat, 5-50uM self-inhibition, training set ref Summerfield et al. 2007
[12] = rat, Kd (nonsaturable component) ref Momma et al. 1987

## CCC1(C)CC(=O)NC1=O (stereo not drawn) [ethosuximide]
[1]; [5]
  logPS(obs): −2.47 mL/g/s

## NNCCc1ccccc1 [phenelzine]
[1]; [5]
  logPS(obs): −2.67 mL/g/s

## CC(C(=O)O)c1ccc(-c2ccccc2)c(F)c1 (stereo not drawn) [flurbiprofen]
[1]; [6]
  logPS(obs): −1.80 mL/g/s
[2]; [7]
  logPo^PAMPA: −1.78

## O=c1[nH]c2ccccc2n1CCCN1CCC(n2c(=O)[nH]c3cc(Cl)ccc32)CC1 [domperidone]
other
  logPo^PAMPA: −2.78
[3]
  logPS(obs): −2.79 mL/g/s

## O=c1n(CCCN2CCN(c3cccc(Cl)c3)CC2)nc2ccccn12 [trazodone]
[1]; [5]
  logPS(obs): −1.47 mL/g/s

## OC[C@@H](O)[C@@H](O)CO [erythritol]
[1]; [8]
  logPS(obs): −4.57 mL/g/s

## OC[C@H]1O[C@@](CO)(O[C@H]2O[C@H](CO)[C@@H](O)[C@H](O)[C@H]2O)[C@@H](O)[C@@H]1O [sucrose]
[1]; [8]
  logPS(obs): −5.30 mL/g/s

## Clc1ccc2c(c1)C(N1CCNCC1)=Nc1ccccc1O2 [amoxapine]
[1]; [5]
  logPS(obs): −1.18 mL/g/s

## CN1CCN(CCCN2c3ccccc3Sc3ccc(C(F)(F)F)cc32)CC1 [trifluoperazine]
[1]; [5]
  logPS(obs): −1.88 mL/g/s

## COc1ccc2c(c1)c(CC(=O)O)c(C)n2C(=O)c1ccc(Cl)cc1 [indomethacin]
[1]; [6]
  logPS(obs): −2.19 mL/g/s
[2]; PAMPA intrinsic permeability, ref Avdeef et al. 2004, Ruell et al. 2004
  logPo^PAMPA: −1.65

## CC[C@]1(O)C[C@@H]2CN(CCc3c([nH]c4ccccc34)[C@@](C(=O)OC)(c3cc4c(cc3OC)N(C)[C@H]3[C@@](O)(C(=O)OC)[C@H](OC(C)=O)[C@]5(CC)C=CCN6CC[C@]43[C@@H]65)C2)C1 [vinblastine]
[1]; rat ref Greig et al. 1990
  logPS(obs): −3.27 mL/g/s
[1]; rat, PSC833 ref Cisternino et al. 2003
  logPS(obs): −3.36 mL/g/s
[4]; mouse ref Murakami et al. 2000
  logPS(obs): −3.32 mL/g/s
[4]; mouse, GF120918, footnote v ref Cisternino et al. 2004
  logPS(obs): −3.25 mL/g/s
[4]; mouse, mdr1a(−/−)+GF120918 ref Cisternino et al. 2001
  logPS(obs): −3.12 mL/g/s
other
  logPo^PAMPA: −0.42

## Cc1nc2n(c(=O)c1CCN1CCC(c3noc4cc(F)ccc34)CC1)CCCC2 [risperidone]
other
  logPo^PAMPA: −2.01

## O=C(O)c1ccccc1O [salicylic acid]
[2]; PAMPA intrinsic permeability, ref Ruell et al. 2003
  logPo^PAMPA: −2.64

## CCC12CCN(CC3(O)CC3)C(Cc3ccc(O)cc31)C2(C)C (stereo not drawn) [bremazocine]
[4]; mouse, in vivo
  logPS(obs): −1.89 mL/g/s
other
  logPo^PAMPA: −1.49

## CCOC(=O)C1(c2ccccc2)CCN(C)CC1 [meperidine]
[4]; mouse, in vivo
  logPS(obs): −1.28 mL/g/s
other
  logPo^PAMPA: 0.79

## O=c1c(O)c(-c2ccc(O)c(O)c2)oc2cc(O)cc(O)c12 [quercetin]
[1]; [9]
  logPS(obs): −3.50 mL/g/s
other
  logPo^PAMPA: −4.77

## C[C@]12CC[C@@H]3c4ccc(O)cc4CC[C@H]3[C@@H]1CC[C@@H]2O [estradiol]
other
  logPo^PAMPA: −3.08

## CC(=O)CC(c1ccccc1)c1c(O)c2ccccc2oc1=O (stereo not drawn) [warfarin]
[1]; rat, in vivo
  logPS(obs): −1.99 mL/g/s
[4]; mouse, in vivo
  logPS(obs): −2.10 mL/g/s

## CN1CCCCC1CCN1c2ccccc2Sc2ccc([S+](C)[O-])cc21 (stereo not drawn) [mesoridazine]
[1]; [5]
  logPS(obs): −1.81 mL/g/s

## Cc1ncc2n1-c1ccc(Cl)cc1C(c1ccccc1F)=NC2 [midazolam]
[1]; rat, in vivo
  logPS(obs): −1.17 mL/g/s

## CC(C)C[C@H](N)C(=O)O [L-leucine]
[1]; [10]
  logPS(obs): −4.08 mL/g/s

## CN(C)C(=O)C(CCN1CCC(O)(c2ccc(Cl)cc2)CC1)(c1ccccc1)c1ccccc1 [loperamide]
other
  logPo^PAMPA: 0.15

## CN(C)CCC=C1c2ccccc2COc2ccccc21 [doxepin]
[1]; [11]
  logPS(obs): −1.31 mL/g/s
[2]; [7]
  logPo^PAMPA: 0.44

## N[C@@H](Cc1ccccc1)C(=O)O [L-phenylalanine]
[1]; [12]
  logPS(obs): −3.74 mL/g/s
other
  logPo^PAMPA: −5.36

## O=C1C[C@@H](c2ccc(O)cc2)Oc2cc(O)cc(O)c21 [naringenin]
[1]; [9]
  logPS(obs): −2.60 mL/g/s
other
  logPo^PAMPA: −3.71

## CCC(=O)C(CC(C)N(C)C)(c1ccccc1)c1ccccc1 (stereo not drawn) [methadone]
other
  logPo^PAMPA: 0.08

## N[C@@H](Cc1ccc(N(CCCl)CCCl)cc1)C(=O)O [melphalin]
[1]; rat, in vivo
  logPS(obs): −3.28 mL/g/s

## COc1ccc([C@@H]2Sc3ccccc3N(CCN(C)C)C(=O)[C@@H]2OC(C)=O)cc1 [diltiazem]
[2]; PAMPA intrinsic permeability, ref Avdeef et al. 2005
  logPo^PAMPA: −1.33

## CC(C)Cc1ccc(C(C)C(=O)O)cc1 (stereo not drawn) [ibuprofen]
[2]; PAMPA intrinsic permeability, ref Ruell et al. 2004, Ruell et al. 2003
  logPo^PAMPA: −2.11

## OCCOCCN1CCN(C(c2ccccc2)c2ccc(Cl)cc2)CC1 (stereo not drawn) [hydroxyzine]
other
  logPo^PAMPA: −1.50

## CCN(C(C)=O)c1cccc(-c2ccnc3c(C#N)cnn23)c1 [zaleplon]
[1]; rat, in vivo
  logPS(obs): −2.25 mL/g/s

## CNS(=O)(=O)Cc1ccc2[nH]cc(CCN(C)C)c2c1 [sumatriptan]
[1]; [11]
  logPS(obs): −4.60 mL/g/s
[2]; PAMPA intrinsic permeability, ref Avdeef 2005
  logPo^PAMPA: −4.18

## C[C@]12CC[C@H]3[C@@H](CCC4=CC(=O)CC[C@@]43C)[C@@H]1CC[C@@H]2O [testosterone]
other
  logPo^PAMPA: −2.83

## CC(C)c1nc(CN(C)C(=O)N[C@H](C(=O)N[C@@H](Cc2ccccc2)C[C@H](O)[C@H](Cc2ccccc2)NC(=O)OCc2cncs2)C(C)C)cs1 [ritonavir]
other
  logPo^PAMPA: −1.68
[3]
  logPS(obs): −2.59 mL/g/s
  Pgp Mutant Kin: 15 mL/100g/min

## CCCN1C[C@H](CSC)C[C@@H]2c3cccc4[nH]cc(c34)C[C@H]21 [pergolide]
[1]; [5]
  logPS(obs): −1.00 mL/g/s

## COc1cc([C@@H]2c3cc4c(cc3[C@@H](O[C@@H]3O[C@@H]5CO[C@@H](C)O[C@H]5[C@H](O)[C@H]3O)[C@H]3COC(=O)[C@H]23)OCO4)cc(OC)c1O [etoposide]
[4]; mouse, mdr1a(−/−), footnote x ref Cisternino et al. 2003
  logPS(obs): −3.91 mL/g/s
other
  logPo^PAMPA: −5.22

## Oc1ccc2c3c1O[C@H]1c4[nH]c5ccccc5c4C[C@@]4(O)[C@@H](C2)N(CC2CC2)CC[C@]314 [naltrindole]
[4]; mouse, in vivo
  logPS(obs): −1.98 mL/g/s
other
  logPo^PAMPA: −0.94

## Nc1nnc(-c2cccc(Cl)c2Cl)c(N)n1 [lamotrigine]
[1]; [5]
  logPS(obs): −2.67 mL/g/s

## OCCO [ethylene glycol]
[1]; rat, in vivo
  logPS(obs): −2.99 mL/g/s

## Nc1c(O)cccc1C(=O)CC(N)C(=O)O (stereo not drawn) [3-hydroxykynurenine]
[1]; rat, Kd (nonsaturable component) ref Fukui et al. 1991
  logPS(obs): −4.49 mL/g/s

## OCCN1CCN(CCCN2c3ccccc3Sc3ccc(Cl)cc32)CC1 [perphenazine]
[1]; [11]
  logPS(obs): −1.27 mL/g/s
other
  logPo^PAMPA: 0.81

## COc1cc2c(c(OC)c1OC)-c1ccc(OC)c(=O)cc1[C@@H](NC(C)=O)CC2 [colchicine]
[1]; rat, in vivo
  logPS(obs): −3.24 mL/g/s
other
  logPo^PAMPA: −5.40

## CN1CCN2c3ncccc3Cc3ccccc3C2C1 (stereo not drawn) [mirtazapine]
[1]; [5]
  logPS(obs): −1.39 mL/g/s

## CSc1ccc2c(c1)N(CCC1CCCCN1C)c1ccccc1S2 (stereo not drawn) [thioridazine]
[1]; [11]
  logPS(obs): −1.37 mL/g/s
other
  logPo^PAMPA: 1.81

## Cc1cc(=O)n(-c2ccccc2)n1C [antipyrine]
[2]; PAMPA
  logPo^PAMPA: −5.69

## COc1cc2nc(N3CCN(C(=O)c4ccco4)CC3)nc(N)c2cc1OC [prazosin]
[2]; [7]
  logPo^PAMPA: −2.58

## CN(C)CCc1c[nH]c2ccc(Cn3cncn3)cc12 [rizatriptan]
[1]; [5]
  logPS(obs): −3.76 mL/g/s

## CCCC(C)(COC(N)=O)COC(N)=O [meprobamate]
[1]; [5]
  logPS(obs): −3.09 mL/g/s

## Nc1ccccc1C(=O)C[C@H](N)C(=O)O [L-kynurenine]
[1]; [12]
  logPS(obs): −4.16 mL/g/s

## CC(C)[C@H](NC(=O)[C@H](CCC(=O)O)NC(=O)[C@H](Cc1ccccc1)NC(=O)[C@@H](C)NC(=O)[C@@H](N)Cc1ccc(O)cc1)C(=O)N[C@H](C(=O)NCC(N)=O)C(C)C [deltorphin II]
[4]; mouse, in vivo
  logPS(obs): −4.36 mL/g/s
other
  logPo^PAMPA: −6.37

## CNCC[C@@H](Oc1ccccc1C)c1ccccc1 [atomoxetine]
[1]; [5]
  logPS(obs): −1.39 mL/g/s

## OCCOCCN1CCN(C2=Nc3ccccc3Sc3ccccc32)CC1 [quetiapine]
[1]; [11]
  logPS(obs): −1.33 mL/g/s
other
  logPo^PAMPA: −1.85

## CN1C[C@H](C(=O)N[C@]2(C)O[C@@]3(O)[C@@H]4CCCN4C(=O)[C@H](Cc4ccccc4)N3C2=O)C=C2c3cccc4[nH]cc(c34)C[C@H]21 [ergotamine]
[1]; rat, in vivo
  logPS(obs): −2.06 mL/g/s

## CC(C)[C@H](N)C(=O)O [L-valine]
[1]; [10]
  logPS(obs): −4.41 mL/g/s

## Cc1c(N2C[C@@H](N)C3(CC3)C2)c(F)c(N)c2c(=O)c(C(=O)O)cn(C3CC3)c12 [HSR-903]
[1]; rat, 20 mM self-inhibition ref Murata et al. 1999
  logPS(obs): −3.14 mL/g/s

## Cc1ccsc1C(=CCCN1CCC[C@@H](C(=O)O)C1)c1sccc1C [tiagabine]
[1]; [11]
  logPS(obs): −2.46 mL/g/s

## NC(N)=S [thiourea]
[1]; [8]
  logPS(obs): −3.36 mL/g/s

## O=C1Cc2cc(CCN3CCN(c4nsc5ccccc45)CC3)c(Cl)cc2N1 [ziprasidone]
[1]; [5]
  logPS(obs): −1.73 mL/g/s

## O=C(CCCN1CCC(O)(c2ccc(Cl)cc2)CC1)c1ccc(F)cc1 [haloperidol]
[2]; PAMPA intrinsic permeability, ref Avdeef et al. 2006
  logPo^PAMPA: 0.05

## OC[C@@H](O)[C@@H](O)[C@H](O)[C@H](O)CO [mannitol]
[1]; [8]
  logPS(obs): −5.01 mL/g/s

## CNCCCC12CCC(c3ccccc31)c1ccccc12 [maprotiline]
[1]; [11]
  logPS(obs): −1.37 mL/g/s
[2]; [7]
  logPo^PAMPA: 1.99

## COc1ccc(C(CN(C)C)C2(O)CCCCC2)cc1 (stereo not drawn) [venlafaxine]
[1]; rat, in vivo
  logPS(obs): −1.98 mL/g/s

## NC1(C(=O)O)CCCCC1 [1-aminocyclohexanecarboxylic acid]
[1]; rat, Kd (nonsaturable component) ref Aoyagi et al. 1988
  logPS(obs): −4.00 mL/g/s

## OCCN1CCN(CCCN2c3ccccc3Sc3ccc(C(F)(F)F)cc32)CC1 [fluphenazine]
[1]; [5]
  logPS(obs): −1.87 mL/g/s
